Legend:
[1] = molecular target: Mast/stem cell growth factor receptor Kit (Homo sapiens, UniProt P10721); assay: Inhibition of human recombinant c-Kit by radiometric assay
[2] = molecular target: T1, Receptor-type tyrosine-protein kinase FLT3 (Homo sapiens, UniProt P36888); assay: Inhibition of human recombinant FLT3 by radiometric assay
T1 sequence (P36888 whole entry): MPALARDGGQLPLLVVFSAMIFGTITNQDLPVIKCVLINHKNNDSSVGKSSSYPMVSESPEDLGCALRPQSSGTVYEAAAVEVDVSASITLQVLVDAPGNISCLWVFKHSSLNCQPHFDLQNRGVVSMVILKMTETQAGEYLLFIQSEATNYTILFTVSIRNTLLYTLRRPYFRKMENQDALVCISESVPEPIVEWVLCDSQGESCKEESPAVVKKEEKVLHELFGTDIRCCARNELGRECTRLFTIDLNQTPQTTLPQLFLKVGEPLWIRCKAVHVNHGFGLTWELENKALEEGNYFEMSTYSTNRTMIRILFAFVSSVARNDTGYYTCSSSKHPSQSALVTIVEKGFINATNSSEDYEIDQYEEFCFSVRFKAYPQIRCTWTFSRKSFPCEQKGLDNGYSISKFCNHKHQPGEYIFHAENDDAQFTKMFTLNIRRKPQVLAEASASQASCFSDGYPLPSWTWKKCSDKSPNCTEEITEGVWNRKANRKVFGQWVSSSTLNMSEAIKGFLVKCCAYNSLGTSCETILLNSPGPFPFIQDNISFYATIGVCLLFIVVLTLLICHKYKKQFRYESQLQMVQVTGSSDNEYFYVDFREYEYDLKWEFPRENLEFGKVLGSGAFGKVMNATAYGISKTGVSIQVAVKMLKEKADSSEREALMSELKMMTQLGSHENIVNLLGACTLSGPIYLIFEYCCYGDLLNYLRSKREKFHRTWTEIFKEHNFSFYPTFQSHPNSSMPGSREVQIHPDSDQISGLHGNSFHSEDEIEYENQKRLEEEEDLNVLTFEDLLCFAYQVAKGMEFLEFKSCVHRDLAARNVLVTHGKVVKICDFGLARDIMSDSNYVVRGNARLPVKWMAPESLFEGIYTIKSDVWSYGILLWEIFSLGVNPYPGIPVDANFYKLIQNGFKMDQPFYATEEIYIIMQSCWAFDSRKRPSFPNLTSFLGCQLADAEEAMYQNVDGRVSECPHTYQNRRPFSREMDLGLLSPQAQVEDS

[3] = molecular target: T2, Tyrosine-protein kinase receptor UFO (Homo sapiens, UniProt P30530); assay: Inhibition of AXL
T2 sequence (P30530 whole entry): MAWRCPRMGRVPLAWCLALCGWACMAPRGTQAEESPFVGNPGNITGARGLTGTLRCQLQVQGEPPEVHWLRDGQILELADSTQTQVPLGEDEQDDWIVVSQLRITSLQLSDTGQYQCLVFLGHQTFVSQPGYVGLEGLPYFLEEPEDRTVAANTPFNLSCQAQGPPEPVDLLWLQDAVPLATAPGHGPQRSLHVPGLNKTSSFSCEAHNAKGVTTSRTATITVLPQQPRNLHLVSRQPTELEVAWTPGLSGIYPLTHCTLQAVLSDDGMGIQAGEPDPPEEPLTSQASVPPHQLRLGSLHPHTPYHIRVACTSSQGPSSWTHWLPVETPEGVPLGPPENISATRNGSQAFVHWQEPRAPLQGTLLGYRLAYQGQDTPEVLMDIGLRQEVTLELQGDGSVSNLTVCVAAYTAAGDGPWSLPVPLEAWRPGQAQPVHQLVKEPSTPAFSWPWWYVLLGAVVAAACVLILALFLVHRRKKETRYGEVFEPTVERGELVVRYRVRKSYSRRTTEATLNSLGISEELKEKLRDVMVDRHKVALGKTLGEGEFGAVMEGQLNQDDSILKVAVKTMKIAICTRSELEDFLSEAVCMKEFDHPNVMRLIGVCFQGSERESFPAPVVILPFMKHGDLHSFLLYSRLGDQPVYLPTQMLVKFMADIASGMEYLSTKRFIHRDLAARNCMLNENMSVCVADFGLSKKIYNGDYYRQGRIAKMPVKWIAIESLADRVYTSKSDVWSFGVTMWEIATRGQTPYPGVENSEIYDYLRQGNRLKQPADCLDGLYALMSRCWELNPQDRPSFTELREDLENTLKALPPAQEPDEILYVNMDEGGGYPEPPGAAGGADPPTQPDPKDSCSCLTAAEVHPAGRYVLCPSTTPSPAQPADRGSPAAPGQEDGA

[4] = molecular target: Hepatocyte growth factor receptor (Homo sapiens, UniProt P08581); assay: Inhibition of cMET
Chain of Hepatocyte growth factor receptor (P08581 whole entry): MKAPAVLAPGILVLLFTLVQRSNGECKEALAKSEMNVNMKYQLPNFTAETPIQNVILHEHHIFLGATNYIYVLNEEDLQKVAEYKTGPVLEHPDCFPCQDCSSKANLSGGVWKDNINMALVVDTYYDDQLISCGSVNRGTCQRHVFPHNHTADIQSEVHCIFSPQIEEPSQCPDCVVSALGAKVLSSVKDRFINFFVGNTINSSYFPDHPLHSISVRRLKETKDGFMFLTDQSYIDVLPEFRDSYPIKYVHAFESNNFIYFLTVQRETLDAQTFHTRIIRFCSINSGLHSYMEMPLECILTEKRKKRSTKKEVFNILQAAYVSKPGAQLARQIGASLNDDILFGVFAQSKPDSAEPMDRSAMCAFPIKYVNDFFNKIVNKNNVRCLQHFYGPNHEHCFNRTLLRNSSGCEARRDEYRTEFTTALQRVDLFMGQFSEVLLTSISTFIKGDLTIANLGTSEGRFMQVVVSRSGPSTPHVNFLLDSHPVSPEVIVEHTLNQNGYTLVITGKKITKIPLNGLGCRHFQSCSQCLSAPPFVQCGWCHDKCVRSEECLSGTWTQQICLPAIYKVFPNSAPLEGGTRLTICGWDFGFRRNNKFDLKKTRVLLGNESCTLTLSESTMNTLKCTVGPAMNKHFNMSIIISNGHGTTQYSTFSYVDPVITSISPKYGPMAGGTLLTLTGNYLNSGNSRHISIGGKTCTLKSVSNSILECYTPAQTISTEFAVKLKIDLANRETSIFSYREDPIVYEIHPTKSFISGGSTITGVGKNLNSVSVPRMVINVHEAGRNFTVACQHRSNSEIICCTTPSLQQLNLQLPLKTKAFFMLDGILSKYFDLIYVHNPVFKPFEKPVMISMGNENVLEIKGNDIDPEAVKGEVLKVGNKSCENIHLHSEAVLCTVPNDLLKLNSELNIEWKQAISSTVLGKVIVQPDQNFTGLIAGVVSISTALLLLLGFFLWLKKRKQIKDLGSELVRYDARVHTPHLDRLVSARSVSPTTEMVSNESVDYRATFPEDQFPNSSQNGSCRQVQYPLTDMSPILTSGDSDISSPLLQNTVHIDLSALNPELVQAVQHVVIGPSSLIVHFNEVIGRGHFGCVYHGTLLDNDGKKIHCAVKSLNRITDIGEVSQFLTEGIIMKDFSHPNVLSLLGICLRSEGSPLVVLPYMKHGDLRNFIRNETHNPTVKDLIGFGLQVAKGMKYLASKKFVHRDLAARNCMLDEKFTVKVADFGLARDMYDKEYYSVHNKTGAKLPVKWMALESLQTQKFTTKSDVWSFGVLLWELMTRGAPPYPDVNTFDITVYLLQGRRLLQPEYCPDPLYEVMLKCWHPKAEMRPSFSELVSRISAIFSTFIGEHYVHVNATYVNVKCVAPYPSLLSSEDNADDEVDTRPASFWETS

[5] = molecular target: Proto-oncogene tyrosine-protein kinase Src (Homo sapiens, UniProt P12931); assay: Inhibition of Src
Chain of Proto-oncogene tyrosine-protein kinase Src (P12931 2-536 limits assumed): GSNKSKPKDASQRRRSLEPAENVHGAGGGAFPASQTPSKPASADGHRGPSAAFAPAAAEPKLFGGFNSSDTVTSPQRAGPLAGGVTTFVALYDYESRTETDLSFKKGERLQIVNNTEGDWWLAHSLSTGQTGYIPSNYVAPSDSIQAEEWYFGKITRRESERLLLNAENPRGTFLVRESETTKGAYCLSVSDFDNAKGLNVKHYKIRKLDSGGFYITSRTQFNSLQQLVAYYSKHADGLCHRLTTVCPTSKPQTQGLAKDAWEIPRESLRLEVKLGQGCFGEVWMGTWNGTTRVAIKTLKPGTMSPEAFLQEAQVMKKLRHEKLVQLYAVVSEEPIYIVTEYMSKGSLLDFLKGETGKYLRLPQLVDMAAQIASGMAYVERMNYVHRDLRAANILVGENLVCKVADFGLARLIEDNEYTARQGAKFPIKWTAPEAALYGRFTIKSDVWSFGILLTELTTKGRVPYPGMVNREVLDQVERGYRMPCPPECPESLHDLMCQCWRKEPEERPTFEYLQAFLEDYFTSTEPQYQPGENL

[6] = tested on: MV4-11; assay: Induction of apoptosis in human MV4-11 cells at 100 nM assessed as apoptotic cells after 48 hrs by annexin V and propidium iodide staining method (reference value: 2.1 %); type: functional
[7] = tested on: MV4-11; assay: Induction of apoptosis in human MV4-11 cells at 100 nM assessed as prenecrotic cells after 48 hrs by annexin V and propidium iodide staining method (reference value: 91.8 %); type: functional
[8] = molecular target: Receptor-type tyrosine-protein kinase FLT3 (Homo sapiens, UniProt P36888, ITD); assay: Inhibition of FLT3 ITD mutant mediated ERK 1/2 phosphorylation in human MV4-11 cells by immunoblot analysis; type: cell-based
[9] = tested on: BaF3; assay: Antitumor activity against mouse BA/F3 cells expressing FLT3-ITD mutant xenografted in BALB/c mouse myeloproliferative model assessed as increase in host survival days at 5 mg/kg, po qd relative to control (reference value: 20 days); type: functional, organism-based; design: dose 5 mg/kg
[10] = tested on: BaF3; assay: Antitumor activity against mouse BA/F3 cells expressing FLT3-ITD mutant xenografted in BALB/c mouse myeloproliferative model assessed as increase in host survival days at 0.25 mg/kg, po qd relative to control (reference value: 20 days); type: functional, organism-based; design: dose 0.25 mg/kg
[11] = tested on: BaF3; assay: Antitumor activity against mouse BA/F3 cells expressing FLT3-ITD mutant xenografted in BALB/c mouse myeloproliferative model assessed as increase in host survival days at 0.05 mg/kg, po qd relative to control (reference value: 20 days); type: functional, organism-based; design: dose 0.05 mg/kg
[12] = tested on: Mus musculus; assay: Plasma concentration at steady state in BALB/c mouse xenografted with BA/F3 cells expressing FLT3-ITD mutant at 1 mg/kg, po qd; type: ADME, organism-based, BaF3; design: dose 1 mg/kg, route oral; details: in vivo
[13] = tested on: Mus musculus; assay: Antitumor activity against mouse BA/F3 cells expressing FLT3-ITD mutant xenografted in BALB/c mouse myeloproliferative model assessed as reduction of phosphorylated Stat5 level in spleen administered qd for 2 days measured after 8 hrs by immunohistochemistry analysis; type: functional, organism-based; details: BaF3
[14] = Oral bioavailability in BALB/c mouse; type: ADME, organism-based; details: in vivo
[15] = species on record: Mus musculus; assay: Toxicity in BALB/c mouse assessed as signs of neutropenia after 100 days; type: organism-based; details: in vivo, 2400 h
[16] = tested on: TF-1; assay: cells; details: Homo sapiens, TF-1, 72 h
Description: Cytotoxicity against human TF1 cells expressing wild type c-KIT assessed as cell viability after 72 hrs by resazurin dye based fluorescence assay

[17] = tested on: MV4-11; assay: cells; details: Homo sapiens, MV4-11, 72 h
Description: Cytotoxicity against human MV4-11 cells expressing FLT3-ITD mutation assessed as cell viability after 72 hrs by resazurin dye based fluorescence assay

Chain of Mast/stem cell growth factor receptor Kit (P10721 whole entry): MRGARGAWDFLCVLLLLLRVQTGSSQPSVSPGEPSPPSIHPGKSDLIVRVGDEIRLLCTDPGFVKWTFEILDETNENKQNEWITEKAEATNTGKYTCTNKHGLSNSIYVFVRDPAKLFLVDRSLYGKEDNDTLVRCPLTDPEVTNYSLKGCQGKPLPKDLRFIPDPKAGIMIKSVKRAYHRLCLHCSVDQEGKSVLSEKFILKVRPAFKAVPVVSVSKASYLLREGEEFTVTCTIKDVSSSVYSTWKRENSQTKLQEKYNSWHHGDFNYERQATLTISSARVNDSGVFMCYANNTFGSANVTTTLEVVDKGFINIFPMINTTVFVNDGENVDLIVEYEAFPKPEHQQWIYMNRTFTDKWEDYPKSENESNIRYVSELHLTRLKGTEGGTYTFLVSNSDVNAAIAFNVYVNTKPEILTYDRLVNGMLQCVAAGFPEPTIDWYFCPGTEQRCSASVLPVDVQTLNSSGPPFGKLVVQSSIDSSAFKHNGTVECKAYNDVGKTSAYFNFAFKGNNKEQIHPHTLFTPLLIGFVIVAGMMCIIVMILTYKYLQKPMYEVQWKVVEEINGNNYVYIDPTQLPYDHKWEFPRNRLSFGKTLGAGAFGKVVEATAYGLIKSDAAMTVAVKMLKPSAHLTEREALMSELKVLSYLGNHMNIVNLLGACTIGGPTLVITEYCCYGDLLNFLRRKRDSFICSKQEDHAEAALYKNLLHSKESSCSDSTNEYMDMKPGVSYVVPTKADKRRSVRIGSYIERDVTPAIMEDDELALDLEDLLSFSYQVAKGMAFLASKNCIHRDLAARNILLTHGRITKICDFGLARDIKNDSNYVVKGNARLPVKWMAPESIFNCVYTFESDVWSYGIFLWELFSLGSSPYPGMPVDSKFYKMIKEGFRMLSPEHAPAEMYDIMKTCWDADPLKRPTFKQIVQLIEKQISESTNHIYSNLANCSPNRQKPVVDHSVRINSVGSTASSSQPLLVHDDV

## Nc1nc(Nc2ccc([C@H]3CC[C@H](N4CCOCC4)CC3)cc2)nn1-c1ccccn1
[1]
  Ki: < 1 nM
[2]
  Ki: 0.17 nM
[3]
  Ki: 40 nM
[4]
  Ki: 130 nM
[5]
  Ki: 770 nM
[6]
  Activity: 26.3%
[7]
  Activity: 28.5%
[8]
  IC50: 1.3 nM
[9]
  MSD: 62 days
[10]
  MSD: 25 days
[11]
  MSD: 24 days
[12]
  Cpss: 91 ng/mL
[13]
  Activity: Dose-dependent effect
[14]
  bioavailability: 100%
[15]
  Activity: Non-toxic
[16]
  IC50: 1.6 nM
[17]
  IC50: 0.2 nM

Source: ChEMBL document CHEMBL1955771, “VX-322: a novel dual receptor tyrosine kinase inhibitor for the treatment of acute myelogenous leukemia” (J Med Chem, 2012)
